According to patent US12358901B2, “KV3 modulators” (priority 2018, dated 2025):

Key:
[1] = Determination of brain tissue binding (equilibrium dialysis); assay type: in vitro ADME; details: Sprague Dawley, rat whole brain homogenate, 5 h at 37° C.
Method: Sprague Dawley rat whole blood, collected on the week of the experiment using K3-EDTA as an anti-coagulant, is diluted with isotonic phosphate buffer 1:1 (v/v). Sprague Dawley rat whole brain, stored frozen at −20° C., is thawed and homogenised in artificial cerebrospinal fluid (CSF) 1:2 (w/v).
An appropriate amount of test compound is dissolved in DMSO to give a 10 millimolar solution. Further dilutions, to obtain a 166.7 micromolar working solution are then prepared using 50% acetonitrile in MilliQ water. This working solution is used to spike the blood to obtain a final concentration of 0.5 micromolar in whole blood. Similarly, the working solution is used to spike brain samples to obtain a final concentration of 5 micromolar in whole brain. From these spiked blood and brain preparations, control samples (n=3), are immediately extracted and used to calculate the initial recovery of the test items.
150 microL of compound-free buffer (isotonic phosphate buffer for blood or artificial CSF buffer for brain) is dispensed in one half-well and 150 microL of spiked matrix (blood or brain) is loaded in the other half-well, with the two halves separated by a semi-permeable membrane. After an equilibration period of 5 h at 37° C., 50 microL of dialysed matrix (blood or brain) is added to 50 microL of corresponding compound-free buffer, and vice-versa for buffer, such that the volume of buffer to matrix (blood or brain) remains the same. Samples are then extracted by protein precipitation with 300 microL of acetonitrile containing rolipram (control for positive ionization mode) or diclofenac (control for negative ionization mode) as internal standards and centrifuged for 10 min at 3000 rpm. Supernatants are collected (100 microL), diluted with 27% AcN in MilliQ water (200 microL) and then injected into an HPLC-MS/MS or UPLC-MS/MS system to determine the concentration of test compound present.
Blood and brain tissue binding are then determined using the following formulas: Afu=Buffer/Blood or Afu=CSF/Brain
Where Afu=apparent fraction unbound; Buffer=analyte/internal standard ratio determined in the buffer compartment; Blood=analyte/internal standard ratio determined in the blood compartment; Brain=analyte/internal standard ratio determined in the brain compartment.
[formula] where: fucr=Fraction unbound corrected; D=matrix dilution factor (D=2 for blood and D=3 for brain).
Then: % Binding=(1−fucr)×100 % Unbound=100−% Bound Brain/Blood Partition Ratio (Kbb) Determination

[2] = In vitro metabolic stability study in human hepatocytes; assay type: in vitro ADME; details: for In vitro CLint / Rate constant k: 0.5 uM, human cryopreserved hepatocytes, 37° C.; for Rate constant k: up to 180 min; for clearance in human hepatocytes (in words): compared to pyridine comparator compounds RE11 and RE13
Method: The objective of this study was to determine metabolic stability in mixed gender human cryopreserved hepatocytes. Testosterone and 7-Hydroxycoumarin were used as positive controls for Phase I and Phase II metabolism, respectively.
Incubation medium was prepared by combining William's medium E, HEPES buffer 1 M and L-glutamine 200 mM in the following proportions: 88%, 10% and 2%, respectively (440 mL, 50 mL and 10 mL, respectively). The medium obtained was bubbled with carbogen (5% CO2, 95% O2) for 30 minutes prior to use. Cryopreserved hepatocytes were thawed and suspended in incubation medium pre-warmed at 37° C. Cells were centrifuged, re-suspended in medium and counted by means of a haemocytometer (Burker's chamber). Cell viability was measured using the Trypan Blue exclusion test.
Test compounds were separately dissolved in DMF to obtain 50 mM stock solutions that were further diluted in water/acetonitrile 50/50 (v/v) to obtain the corresponding 50 uM working solutions. Testosterone and 7-Hydroxy-Coumarin were dissolved in DMF in order to obtain a 50 mM Testosterone solution and 5 mM 7-Hydroxy-Coumarin solution. These solutions were then diluted in the incubation medium in order to obtain a 1 mM Testosterone working solution and a 500 uM 7-Hydroxy-Coumarin working solution.
10 μL of each working solution, i.e. 50 uM test compound, 1 mM Testosterone and 500 uM of 7-Hydroxy-Coumarin were added to 990 μL of 0.5×10^6 cell suspensions in order to obtain the final concentrations of 0.5 uM, 10 uM and 5 uM, respectively. The concentration of the organic solvent in each incubation was constant and <1% (v/v).
Test compounds were separately incubated at 0.5 uM for 0, 5, 10, 15, 20, 30, 45, 60, 90, 120, 150 and 180 min (12 time points) with mixed gender human cryopreserved hepatocytes at 37° C. in a 24 well plate. At each time point a robotic handling processor aspirated 50 μL of incubation mixture from each well and dispensed it into a refrigerated 96 well plate, containing 100 μL of acetonitrile with the corresponding internal standard 150 ng/mL to stop the reaction. Then an aliquot of water (120 uL) was added to equilibrate the organic solvent content at 37%. Samples were centrifuged (ca. 3500 g for 10 minutes) prior to LC MS/MS analysis.
Metabolic stability was calculated from the peak area ratio of the remaining test compound with internal standard versus time.
The intrinsic clearance (CLint) was determined from the first order elimination constant k (min^−1) (obtained from GraphPad by plotting the natural logarithm of the peak area ratio of the remaining test item with internal standard versus time), using the actual volume of the incubation V (mL), the amount of hepatocytes in the incubation M (million cells) and the hepatocellularity number per g liver Hn (120 for human).
Values for CLint were expressed as mL/min/g liver.

[3] = system: Salmonella typhimurium (TA1535, TA1537, TA98 and TA100) and Escherichia coli WP2 uvrA (pKM101); assay: Ames testing (bacterial mutagenicity, with and without S9-mix); details: 5 to 5000 ug/plate, absence and presence of S9-mix

| SMILES | fraction unbound at 5 h, 5 micromolar [1] | In vitro CLint [2] [mL/min/g liver] | Rate constant k [2] [min⁻¹] | clearance in human hepatocytes (in words) [2] | Ames Result (compound) [3] |
| --- | --- | --- | --- | --- | --- |
| CC[C@H]1NC(=O)N(c2cnc(Oc3ccc(C)c4c3C3(CC3)CO4)cn2)C1=O [Example 9, (5R)-5-ethyl-3-[5-(7-methylspiro[2H-benzofuran-3,1′-cyclopropane]-4-yl)oxypyrazin-2-yl]imidazolidine-2,4-dione] | 0.03 | 1.03 | 0.004 | low clearance | Non- mutagenic |
| CC[C@H]1NC(=O)N(c2cnc(Oc3cccc4c3C3(CC3)CO4)cn2)C1=O [Example 10, (5R)-5-ethyl-3-(5-spiro[2H-benzofuran-3,1′-cyclopropane]-4-yloxypyrazin-2-yl)imidazolidine-2,4-dione] | 0.087 | 0.70 | 0.003 | low clearance | Non- mutagenic |
| Cc1ccc(Oc2ncc(N3C(=O)NC(C)(C)C3=O)cn2)c2c1OCC21CC1 [RE5, reference compound] | 0.051 | 0.31 | 0.002 | – | Non- mutagenic |
| CC[C@H]1NC(=O)N(c2ccc(Oc3ccc(C)c4c3C3(CC3)CO4)nc2)C1=O [RE11, reference compound] | 0.021 | 3.58 | 0.02 | – | Non- mutagenic |
| CC[C@H]1NC(=O)N(c2ccc(Oc3cccc4c3C3(CC3)CO4)nc2)C1=O [RE13, (5R)-5-ethyl-3-(6-spiro[2H-benzofuran-3,1′-cyclopropane]-4-yloxy-3-pyridyl)imidazolidine-2,4-dione, reference compound] | 0.062 | 2.16 | 0.009 | – | – |
